Where no end group is shown, it is not given here.
System: S. aureus (29): reference (5) and clinical (24) strains
Details: for Mean value of MIC: mean over 29 S. aureus strains (Table 5); for MIC range among strains: range over all S. aureus strains and the salts of the peptide
Experimental: Microbiological assays were performed using reference and clinical strains of Staphylococcus aureus. Minimal inhibitory concentrations (MIC) were determined by broth microdilution method on 96-well polystyrene plates according to Clinical and Laboratory Standards Institute (CLSI) recommendations [Clinical and Laboratory Standards Institute (CLSI) [2012]]. […] All plates were incubated for 18 h at 37 °C. […] Reference strains of S. aureus: ATCC 6538, ATCC 6538/P, ATCC 9144, ATCC 12598, and ATCC 25923 were obtained from the Polish Collection of Microorganisms (PCM, Polish Academy of Sciences, Wrocław), whereas 24 clinical strains were isolated from the patients of the Clinic of Dermatology, Venereology and Allergology (Medical University of Gdańsk). Nine strains were characterized as methicillin-resistant (MRSA). Preliminary identification and detection was conducted on the ChromID MRSA/ChromID S. aureus biplate (bioMérieux) for the simultaneous detection of S. aureus and methicillin-resistant S. aureus (MRSA). All experiments were conducted at least in triplicate.
To asses an overall activity of peptides, the mean MIC values were calculated.

Substance	Mean value of MIC	MIC range among strains
FLPLIGRVLSGIL-NH2 [Temporin A TFA^−]	5.9 µg/mL	–
GIGKFLKKAKKFGKAFVKILKK-NH2 [Pexiganan TFA^−]	8.4 µg/mL	–
GIGKFLKKAKKFGKAFVKILKK-NH2 [Pexiganan Cl^−]	7.4 µg/mL	–
FLPLIGRVLSGIL-NH2 [Temporin A AcO^−]	4.2 µg/mL	–
GIGKFLKKAKKFGKAFVKILKK-NH2 [Pexiganan]	–	1 to 16 µg/mL
GLFDVIKKVASVIGGL-NH2 [Citropin 1.1]	–	1 to 32 µg/mL
